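1) Cells in 96-well plates. 2) Compound, 48 h, 5 concentrations. 3) Linear interpolation between surrounding doses. 4) Unreached endpoint = highest concentration. Definition used: TGI = concentration required for complete inhibition of growth.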
Experiments:
Assay in all cases: growth of human tumour cells (NCI), 48 h
NCI-H226 lung = tested on: NCI-H226 lung
OVCAR-3 ovarian = tested on: OVCAR-3 ovarian
MDA-MB-435 = tested on: MDA-MB-435
ACHN renal = tested on: ACHN renal
NCI-H460 lung = tested on: NCI-H460 lung
CAKI-1 renal = tested on: CAKI-1 renal
MDA-N = tested on: MDA-N
SK-MEL-2 melanoma = tested on: SK-MEL-2 melanoma
TK-10 renal = tested on: TK-10 renal
MCF7 breast = tested on: MCF7 breast
MDA-MB-231 breast = tested on: MDA-MB-231 breast
T-47D breast = tested on: T-47D breast
UACC-62 melanoma = tested on: UACC-62 melanoma
SW-620 colon = tested on: SW-620 colon
LOX IMVI melanoma = tested on: LOX IMVI melanoma
786-0 renal = tested on: 786-0 renal
SF-268 CNS = tested on: SF-268 CNS
CCRF-CEM leukemia = tested on: CCRF-CEM leukemia
SF-295 CNS = tested on: SF-295 CNS
NCI/ADR-RES ovarian = tested on: NCI/ADR-RES ovarian
SK-MEL-28 melanoma = tested on: SK-MEL-28 melanoma
SK-OV-3 ovarian = tested on: SK-OV-3 ovarian
SN12C renal = tested on: SN12C renal
HOP-62 NSCLC = tested on: HOP-62 NSCLC
COLO 205 colon = tested on: COLO 205 colon
K-562 leukemia = tested on: K-562 leukemia
UO-31 renal = tested on: UO-31 renal
HCT-116 colon = tested on: HCT-116 colon
OVCAR-8 ovarian = tested on: OVCAR-8 ovarian
SR leukemia = tested on: SR leukemia
HCT-15 colon = tested on: HCT-15 colon
RPMI-8226 leukemia = tested on: RPMI-8226 leukemia
MALME-3M melanoma = tested on: MALME-3M melanoma
PC-3 prostate = tested on: PC-3 prostate
MOLT-4 leukemia = tested on: MOLT-4 leukemia
M14 melanoma = tested on: M14 melanoma
OVCAR-5 ovarian = tested on: OVCAR-5 ovarian
DU-145 prostate = tested on: DU-145 prostate
A498 renal = tested on: A498 renal
RXF 393 renal = tested on: RXF 393 renal
SF-539 CNS = tested on: SF-539 CNS
UACC-257 melanoma = tested on: UACC-257 melanoma
KM12 colon = tested on: KM12 colon
SNB-75 CNS = tested on: SNB-75 CNS
SNB-19 CNS = tested on: SNB-19 CNS
U251 CNS = tested on: U251 CNS
IGROV1 ovarian = tested on: IGROV1 ovarian
A549 NSCLC = tested on: A549 NSCLC
HOP-92 NSCLC = tested on: HOP-92 NSCLC
SK-MEL-5 melanoma = tested on: SK-MEL-5 melanoma
NCI-H522 lung = tested on: NCI-H522 lung
NCI-H23 lung = tested on: NCI-H23 lung
OVCAR-4 ovarian = tested on: OVCAR-4 ovarian
HT29 colon = tested on: HT29 colon
HL-60(TB) leukemia = tested on: HL-60(TB) leukemia
HS 578T breast = tested on: HS 578T breast
HCC-2998 colon = tested on: HCC-2998 colon
EKVX NSCLC = tested on: EKVX NSCLC

Measured: TGI

COc1cc(O)c2c(c1)OCC1(Cc3cc(OC)c(OC)cc31)C2=O (centres undefined)
26.7 µM: SK-MEL-5 melanoma
57.2 µM: T-47D breast
> 100 µM: NCI-H226 lung | OVCAR-3 ovarian | MDA-MB-435 | ACHN renal | NCI-H460 lung | CAKI-1 renal | MDA-N | SK-MEL-2 melanoma | TK-10 renal | MCF7 breast | MDA-MB-231 breast | UACC-62 melanoma | SW-620 colon | LOX IMVI melanoma | 786-0 renal | SF-268 CNS | CCRF-CEM leukemia | SF-295 CNS | NCI/ADR-RES ovarian | SK-MEL-28 melanoma | SK-OV-3 ovarian | SN12C renal | HOP-62 NSCLC | COLO 205 colon | K-562 leukemia | UO-31 renal | HCT-116 colon | OVCAR-8 ovarian | SR leukemia | HCT-15 colon | RPMI-8226 leukemia | MALME-3M melanoma | PC-3 prostate | MOLT-4 leukemia | M14 melanoma | OVCAR-5 ovarian | DU-145 prostate | A498 renal | RXF 393 renal | SF-539 CNS | UACC-257 melanoma | KM12 colon | SNB-75 CNS | SNB-19 CNS | U251 CNS | IGROV1 ovarian | HOP-92 NSCLC | NCI-H522 lung | NCI-H23 lung | OVCAR-4 ovarian | HT29 colon | HL-60(TB) leukemia | HS 578T breast
66.8 µM: A549 NSCLC

CC/C=C/C(CC)C/C(C)=C\[C@]1(CC)C[C@H](CC)[C@H](CC(=O)O)OO1 (some centres undefined)
0.494 µM: MOLT-4 leukemia
3.05 µM: SN12C renal | NCI-H23 lung
2.71 µM: MDA-N
2.27 µM: HL-60(TB) leukemia
1.42 µM: SW-620 colon
1.24 µM: PC-3 prostate
0.36 µM: NCI-H460 lung
0.331 µM: NCI-H522 lung
3.31 µM: MDA-MB-231 breast
2.8 µM: MDA-MB-435
0.235 µM: KM12 colon
3.07 µM: UACC-62 melanoma | A498 renal
0.395 µM: RPMI-8226 leukemia
5.31 µM: HS 578T breast
1.48 µM: K-562 leukemia
0.967 µM: CAKI-1 renal
11.1 µM: UACC-257 melanoma
1.64 µM: DU-145 prostate
3.6 µM: M14 melanoma
2.64 µM: OVCAR-5 ovarian
2.48 µM: OVCAR-3 ovarian
3.22 µM: SK-MEL-2 melanoma
2.54 µM: SK-MEL-5 melanoma
0.41 µM: CCRF-CEM leukemia
3.58 µM: MCF7 breast
0.641 µM: ACHN renal
3.23 µM: OVCAR-8 ovarian
0.0368 µM: UO-31 renal
2.2 µM: HOP-62 NSCLC
1.19 µM: SF-295 CNS
0.287 µM: SR leukemia
3.34 µM: SNB-19 CNS
0.129 µM: LOX IMVI melanoma
2.61 µM: 786-0 renal
2.93 µM: SF-539 CNS
0.208 µM: IGROV1 ovarian
1.83 µM: HT29 colon
1.62 µM: HCT-15 colon
2.9 µM: SF-268 CNS
3.3 µM: SK-OV-3 ovarian
0.281 µM: A549 NSCLC
1.84 µM: NCI/ADR-RES ovarian
2.72 µM: COLO 205 colon
2.99 µM: T-47D breast
4.58 µM: NCI-H226 lung
1.43 µM: HCT-116 colon
1.79 µM: U251 CNS

COc1cc2nn(-c3ccccc3)nc2c2nonc12
> 100 µM: NCI-H226 lung | OVCAR-3 ovarian | MDA-MB-435 | ACHN renal | NCI-H460 lung | CAKI-1 renal | MDA-N | SK-MEL-2 melanoma | TK-10 renal | MDA-MB-231 breast | T-47D breast | HCC-2998 colon | UACC-62 melanoma | SW-620 colon | LOX IMVI melanoma | 786-0 renal | SF-268 CNS | CCRF-CEM leukemia | EKVX NSCLC | SF-295 CNS | NCI/ADR-RES ovarian | SK-MEL-28 melanoma | SK-OV-3 ovarian | SN12C renal | HOP-62 NSCLC | COLO 205 colon | K-562 leukemia | UO-31 renal | HCT-116 colon | SR leukemia | HCT-15 colon | RPMI-8226 leukemia | MALME-3M melanoma | PC-3 prostate | MOLT-4 leukemia | M14 melanoma | OVCAR-5 ovarian | DU-145 prostate | A498 renal | RXF 393 renal | SF-539 CNS | UACC-257 melanoma | KM12 colon | SNB-75 CNS | SNB-19 CNS | IGROV1 ovarian | A549 NSCLC | SK-MEL-5 melanoma | NCI-H522 lung | NCI-H23 lung | OVCAR-4 ovarian | HT29 colon | HL-60(TB) leukemia | HS 578T breast
